Assay results published in ChEMBL document CHEMBL3639166, “Heteroaryloxyheterocyclyl compounds as PDE10 inhibitors” (2013).

Biological target: T1, cAMP and cAMP-inhibited cGMP 3',5'-cyclic phosphodiesterase 10A (Rattus norvegicus, UniProt Q9QYJ6)
T1 sequence (Q9QYJ6 whole entry): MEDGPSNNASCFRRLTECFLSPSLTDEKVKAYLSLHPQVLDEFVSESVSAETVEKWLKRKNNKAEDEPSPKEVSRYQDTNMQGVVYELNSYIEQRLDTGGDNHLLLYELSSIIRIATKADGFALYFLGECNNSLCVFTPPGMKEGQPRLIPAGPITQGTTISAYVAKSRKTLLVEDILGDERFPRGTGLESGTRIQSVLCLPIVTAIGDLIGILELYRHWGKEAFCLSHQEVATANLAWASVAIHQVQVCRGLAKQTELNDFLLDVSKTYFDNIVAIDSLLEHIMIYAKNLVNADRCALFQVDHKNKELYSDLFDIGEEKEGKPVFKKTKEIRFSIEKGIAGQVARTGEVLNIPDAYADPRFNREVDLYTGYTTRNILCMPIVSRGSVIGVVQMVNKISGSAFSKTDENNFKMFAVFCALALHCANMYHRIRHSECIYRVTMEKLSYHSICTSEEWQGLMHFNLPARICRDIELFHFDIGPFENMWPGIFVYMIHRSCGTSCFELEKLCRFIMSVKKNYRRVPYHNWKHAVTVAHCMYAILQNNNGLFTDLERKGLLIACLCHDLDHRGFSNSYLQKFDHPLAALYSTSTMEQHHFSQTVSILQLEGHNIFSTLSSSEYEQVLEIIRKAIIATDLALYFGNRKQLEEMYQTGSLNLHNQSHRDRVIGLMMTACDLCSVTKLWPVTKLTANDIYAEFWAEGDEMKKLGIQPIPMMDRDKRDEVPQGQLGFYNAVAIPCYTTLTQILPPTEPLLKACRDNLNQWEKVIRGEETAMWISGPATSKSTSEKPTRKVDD
Experiment: Enzyme Inhibition Assay: Enzyme activity: An IMAP TR-FRET assay was used to analyze the enzyme activity (Molecular Devices Corp., Sunnyvale, Calif).

Compound	IC50
N#CC1CCN(c2nc3ccccc3nc2OC2CN(c3ccc4ccccc4n3)C2)CC1	0.0192 µM
Cc1ccnc(C(=O)N2CCC(Oc3ncccc3C3CCOCC3)CC2)c1	0.118 µM
Clc1cnccc1-c1nccnc1OC1CN(c2ccc3ccccc3n2)C1	0.155 µM
CC(=O)N1CC=C(c2nccnc2OC2CN(C(=O)c3ccc(C)cn3)C2)CC1	1.03 µM
FC1(F)CCN(c2nccnc2OC2CN(c3ccc4ccccc4n3)C2)C1	0.0953 µM
Cc1cccnc1C(=O)N1CCC(Oc2ncccc2C2CCOCC2)CC1	1 µM
O=[N+]([O-])c1ccc(N2CCC(Oc3ncccc3C3CCOCC3)CC2)nc1	1.4 µM
OCC1CCN(c2nccnc2O[C@@H]2CCN(c3ccc4ccccc4n3)C2)CC1	0.167 µM
c1cncc(-c2nccc(OC3CN(c4ccc5ccccc5n4)C3)n2)c1	0.0356 µM
c1ccc2[nH]c(N3CC[C@@H](Oc4nccnc4C4CCOCC4)C3)nc2c1	0.306 µM
O=C(c1nc2ccccc2[nH]1)N1CC(Oc2nccnc2N2CCOCC2)C1	0.377 µM
c1ccc2nc(N3CC[C@H](Oc4nccnc4C4CCOCC4)C3)ccc2c1	0.447 µM
COc1cccc(-c2nccnc2OC2CN(c3ncc4ccccc4n3)C2)c1	0.148 µM
OCC1CN(c2nccnc2OC2CN(c3ccc4ccccc4n3)C2)CCO1 (stereo unspecified)	0.0886 µM
Cc1ccnc(N2CCC(Oc3ncccc3C3CCOCC3)CC2)c1	0.236 µM
OCC1CCN(c2ncc(Br)c(OC3CN(c4ccc5ccccc5n4)C3)n2)CC1	0.007 µM
CC(=O)N1CCC(c2nccnc2OC2CCN(c3ccc4ccccc4n3)CC2)CC1	1.64 µM
CC(C)(C)OC(=O)N1CC(Oc2ncccc2[C@H]2CC[C@H](O)CC2)C1	0.0158 µM
CC1CCN(c2ncc(Br)c(OC3CN(c4ccc5ccccc5n4)C3)n2)CC1	0.358 µM
Brc1cccnc1OC1CN(c2ccncn2)C1	57.7 µM
Cc1cccc(N2CCC(Oc3nccnc3C3CCOCC3)CC2)n1	1.44 µM
CC(=O)N1CCC(c2cccnc2OC2CCN(c3ccc(C)cn3)CC2)CC1	1.17 µM
c1ccc2nc(N3CCC(Oc4nccnc4N4CCCCC4)CC3)ccc2c1	0.403 µM
CC(=O)N1CCCC(c2cccnc2OC2CN(C(=O)c3ccc(C)nc3)C2)C1 (stereo unspecified)	8.34 µM

Compound	IC50
COc1ncccc1-c1cnc(N2CCC(CO)CC2)nc1OC1CN(c2ccc3ccccc3n2)C1	0.0006 µM
CC(=O)N1CCCC(c2cccnc2OC2CN(C(=O)c3ccccn3)C2)C1 (stereo unspecified)	0.041 µM
c1ccc2nc(N3CCC(Oc4nccnc4N4CC5(COC5)C4)CC3)ccc2c1	0.345 µM
CC(=O)N1CCC(c2nccnc2OC2CN(C(=O)c3ccc[nH]3)C2)CC1	0.139 µM
c1ccc2cc(N3CC[C@H](Oc4nccnc4C4CCOCC4)C3)ncc2c1	1.36 µM
O=C(OCc1ccccc1)N1CCC(c2nc3ccccc3nc2OC2CN(c3ccc4ccccc4n3)C2)CC1	0.0511 µM
Cc1ccccc1-c1nccnc1OC1CN(c2ccc3ccccc3n2)C1	0.128 µM
CC(=O)N1CCC(c2cnc(N3CCC(CO)CC3)nc2OC2CN(c3ccc4ccccc4n3)C2)CC1	0.00039 µM
c1ccc2c(N3CC[C@@H](Oc4nccnc4C4CCOCC4)C3)nccc2c1	4.43 µM
O=C(c1nc2ccccc2s1)N1CCC(Oc2ncccc2C2CCOCC2)CC1	0.324 µM
Fc1cc(-c2nccnc2OC2CN(c3ccc4ccccc4n3)C2)ccn1	0.0395 µM
O=C(c1nc2ccccc2[nH]1)N1CC[C@@H](Oc2nccnc2C2CCOCC2)C1	2.78 µM
CC(=O)N1CCC(c2cccnc2OC2CCN(c3ccc(Cl)cn3)CC2)CC1	1.2 µM
c1ccc2nc(N3CC(Oc4nccnc4N4CCC4)C3)ccc2c1	0.0861 µM
CC(=O)N1CCN(c2nccnc2OC2CN(C(=O)c3nc4ccccc4[nH]3)C2)CC1	0.637 µM
Nc1ccc(N2CCC(Oc3ncccc3C3CCOCC3)CC2)nc1	1.7 µM
CN1CCCN(c2nccnc2OC2CN(c3ccc4ccccc4n3)C2)CC1	2.99 µM
OCC1CCN(c2cncc(OC3CN(c4ccc5ccccc5n4)C3)n2)CC1	0.000639 µM
CC(=O)N1CCC(c2nccnc2OC2CN(c3ccc4ccccc4n3)C2)CC1	0.00839 µM
CC(=O)N1CC=C(c2nccnc2OC2CN(C(=O)c3cc(C)c[nH]3)C2)CC1	0.25 µM
Cc1cccc(-c2nccnc2OC2CN(c3ccc4ccccc4n3)C2)c1	0.0573 µM
CC(=O)N1CC2(C1)CN(c1nccnc1OC1CCN(c3ccc4ccccc4n3)CC1)C2	1.27 µM
N#Cc1ccc(-c2nccnc2OC2CN(c3ccc4ccccc4n3)C2)cc1	0.0394 µM
Cc1ccc2ccc(N3CCC(Oc4ncccc4C4CCOCC4)CC3)nc2c1	0.266 µM

Compound	IC50
COc1ccccc1-c1nccnc1OC1CN(c2ccc3ccccc3n2)C1	0.15 µM
O=C(c1nc2ccccc2[nH]1)N1CC(Oc2nccnc2N2CCC(O)CC2)C1	0.186 µM
Cc1cccc(C(=O)N2CCC(Oc3ncccc3C3CCOCC3)CC2)n1	1.18 µM
OC1CCN(c2nccnc2OC2CCN(c3ccc4ccccc4n3)CC2)CC1	0.198 µM
O=C(c1cc2ccccc2cn1)N1CCC(Oc2ncccc2C2CCOCC2)CC1	0.126 µM
O=C(c1ccc[nH]1)N1CCC(Oc2ncccc2C2CCOCC2)CC1	4.26 µM
OCC1CCCN(c2nccnc2OC2CN(c3ccc4ccccc4n3)C2)C1 (stereo unspecified)	0.0406 µM
O=C(c1ccc2ccccc2n1)N1CCC(Oc2nccnc2N2CCOCC2)CC1	1.08 µM
CC(C)(C)OC(=O)N1CC=C(c2cnc(N3CCC(CO)CC3)nc2OC2CN(c3ccc4ccccc4n3)C2)CC1	0.0003 µM
Fc1ccc(N2CCC(Oc3ncccc3C3CCOCC3)CC2)nc1	2.96 µM
OCC1CCN(c2ncc(Br)c(OC3CN(c4ccc5ccccc5n4)C3)n2)C1 (stereo unspecified)	0.0206 µM
OCC1CCN(c2ncc(F)c(OC3CN(c4ccc5ccccc5n4)C3)n2)CC1	0.02 µM
COc1ncccc1-c1nc2ccccc2nc1OC1CN(c2ccc3ccccc3n2)C1	0.0055 µM
Brc1ccc(N2CCC(Oc3ncccc3C3CCOCC3)CC2)nc1	0.138 µM
c1ccc2nc(N3CC(Oc4nccnc4N4CCC5(CC4)COC5)C3)ccc2c1	0.0436 µM
O=C1CCN(c2nccnc2OC2CN(c3ccc4ccccc4n3)C2)CC1	0.11 µM
FC1(F)CCN(c2cccnc2OC2CN(c3ccc4ccccc4n3)C2)CC1	0.0359 µM
O=C(c1nc2ccccc2[nH]1)N1CC(Oc2nccnc2C2CCOCC2)C1	0.884 µM
C1=C(c2nccnc2OC2CN(c3ccc4ccccc4n3)C2)CCOC1	0.0149 µM
Cc1ccc2ccc(N3CCC(Oc4nccnc4C4CCOCC4)CC3)nc2c1	0.515 µM
c1ccc(-c2nccc(OC3CN(c4ccc5ccccc5n4)C3)n2)nc1	0.109 µM
Nc1ccc(-c2nccc(OC3CN(c4ccc5ccccc5n4)C3)n2)cc1	0.11 µM
N#Cc1ccc(-c2nccnc2OC2CN(c3ccc4ccccc4n3)C2)cn1	0.0506 µM
CC(=O)N1CCC(c2nccnc2OC2CCN(c3ccccn3)CC2)CC1	2.85 µM

Compound	IC50
c1cnc(OC2CN(c3ccc4ccccc4n3)C2)c(N2CCOCC2)c1	0.012 µM
CC(O)C1CCN(c2ncc(Br)c(OC3CN(c4ccc5ccccc5n4)C3)n2)CC1 (stereo unspecified)	0.242 µM
CN(C)C1CCN(c2nccnc2OC2CN(c3ccc4ccccc4n3)C2)CC1	0.52 µM
O=C(c1ccccn1)N1CCC(Oc2ncccc2C2CCOCC2)CC1	1.26 µM
CC(=O)c1cccc(-c2nccnc2OC2CN(c3ccc4ccccc4n3)C2)c1	0.0112 µM
Cc1ccc2nc(N3CCC(Oc4nccnc4C4CCOCC4)CC3)ccc2c1	0.276 µM
c1ccc2[nH]c(N3CC[C@H](Oc4nccnc4C4CCOCC4)C3)nc2c1	3.93 µM
c1ccc2nc(N3CCC(Oc4nccnc4N4CCOCC4)CC3)ccc2c1	0.254 µM
OCC1CCN(c2ncc(Cl)c(OC3CN(c4ccc5ccccc5n4)C3)n2)CC1	0.01 µM
O=C(c1nc2ccccc2[nH]1)N1CCC(Oc2nccnc2-c2ccncc2)CC1	0.23 µM
O=C(c1nc2ccccc2[nH]1)N1CC[C@H](Oc2ncccc2C2=CCOCC2)C1	0.715 µM
O=C(c1ncc[nH]1)N1CCC(Oc2ncccc2C2CCOCC2)CC1	3.67 µM
O=C1CCN(c2nccnc2OC2CCN(c3ccc4ccccc4n3)CC2)CC1	0.195 µM
OCC1CCCCN1c1ncc(Br)c(OC2CN(c3ccc4ccccc4n3)C2)n1 (stereo unspecified)	0.26 µM
CC(=O)N1CC=C(c2cccnc2OC2CN(c3nc4ccccc4s3)C2)CC1	0.346 µM
c1cnc(O[C@@H]2CCN(c3nccc4ccccc34)C2)c(C2CCOCC2)c1	0.981 µM
Cc1cccnc1N1CCC(Oc2ncccc2C2CCOCC2)CC1	0.568 µM
N#Cc1ccc(N2CCC(Oc3ncccc3C3CCOCC3)CC2)nc1	0.828 µM
c1ccc2nc(N3CC(Oc4nccnc4N4CCCC4)C3)ccc2c1	10 µM
CN(C)C(=O)c1ccc(-c2nccnc2OC2CN(c3ccc4ccccc4n3)C2)cc1	0.015 µM
CC(=O)N1CCC(c2cccnc2OC2CCN(c3ncccc3C)CC2)CC1	1.49 µM
OCC1CCN(c2ncc(Br)c(OC3CN(c4ncc5ccccc5n4)C3)n2)CC1	0.0146 µM
N#CC1CCN(c2cc(F)cnc2OC2CN(c3ccc4ccccc4n3)C2)CC1	0.0151 µM
COCC#Cc1nccnc1OC1CN(c2ccc3ccccc3n2)C1	0.282 µM
